According to patent US20190040025A1, “INDOLEAMINE 2,3-DIOXYGENASE INHIBITOR, PREPARATION METHOD THEREFOR, AND APPLICATION” (Jiangsu Hansoh Pharmaceutical Group Co., Ltd., priority 2016, published 2019):

Tests used:
[1] = Pharmacokinetic (PK) analysis of rat plasma; format: in vivo; settings: Sprague-Dawley, po, 20 mg/kg, SD rats, single gavage, 20 mg/10 mL/kg
Protocol: The pharmacokinetics test of the test compound was performed with Sprague Dawley (SD) rats (Shanghai Slac Laboratory Animal Co., LTD).
Mode of administration: Single gavage.
U Dosage: 20 mg/10 mL/kg.
Formulation prescription: 3% dimethylacetamide and 20% hydroxypropyl-3-cyclodextrin.
Sampling points: before administration and 15 minutes, 0.5, 1, 2, 4, 6, 8 and 24 hours after administration.
Plasma sampling and sample processing: • 1) 0.2 ml of intravenous blood was collected and placed in an EDTA-2K tube. The blood was centrifuged at 4° C. for 5 minutes at 6,000 rpm to separate the plasma, which was stored at −80° C. • 2) 160 μL of acetonitrile were added to 40 μL of plasma sample, standard, and internal reference. The mixture was shaken vertically for 3 minutes, and centrifuged at 4000 rpm for 10 minutes. 100 μL of the supernatant were taken, and then added with 100 μL of deionized water and mixed well. 100 μL of the resulting solution was taken for LC/MS/MS analysis. The instrument for plasma LC/MS/MS analysis was AB Sciex API 4000.
Liquid Chromatography Analysis: • Liquid chromatography conditions: Shimadzu LC-20AD pump • Chromatographic column: phenomenex Gemiu 5 μm C18 50×4.6 mm • Mobile phase: solution A was 0.1% formic acid solution, and solution B was acetonitrile • Flow rate: 0.8 mL/min • Elution time: 0-3.01 minutes and the eluent was as follows:
• Mass spectrometry analysis: setup conditions of mass spectrometer: positive ion electrospray ionization (ESI) mode. • Experimental results: the main parameters of pharmacokinetics were calculated by WinNonlin 6.1 and the experimental results are shown in the following table: […]

[2] = test system: mouse pancreatic cancer cell line PAN02; assay: Anti-tumor effect in PAN02 tumor-bearing mouse model; format: in vivo, mouse (C57/BL6); settings: PAN02 tumor-bearing mice, 50 mg/kg intragastric twice a day
Description: The invention used the PAN02 tumor-bearing mouse model to test the anti-tumor effect of the example compounds. The PAN02 tumor-bearing mouse model was the mouse pancreatic cancer cell line PAN02 purchased from Guangzhou Ginnio Biological Technology Co., Ltd., and the culture medium used was DMEM containing 10% fetal bovine serum. The mouse strain used for tumor-bearing was C57/BL6 purchased from Shanghai Slac Laboratory Animal Co., Ltd. At the time of implanting, the PAN02 cells in the logarithmic growth phase were collected, and mixed with the BDMatrigel matrix gel that reduced the growth factor to 50 million cells/ml. Each mouse was implanted subcutaneously with 100 μL of 5 million cells. When the tumor grew to about 100 cubic millimeters, animals were randomly divided into groups with 8 animals per group. Drug administration was started (D0).
Mode of administration: intragastrical administration, twice a day.
(§1) Formulation prescription: 3% two methyl acetamide and 20% hydroxypropyl-β-cyclodextrin. • Administration period and tumor measurement: The administration period was 13 days. The tumor volume was measured, the mice were weighed, and the data were recorded, 3 times a week. The calculation formula of tumor volume (V) is: V=½a×b2, where a and b represent length and width respectively. The calculation formula of T/C is: T/C (%)=100×ΔT/ΔC. Tumor inhibition rate (%)=1−T/C (%). • Experimental results: the anti-tumor effect of the compound of Example 15 in PAN02 tumor-bearing mouse model is shown in the following table.

[3] = test system: mouse rectal cancer cell line Colon26; assay: Anti-tumor effect in Colon26 tumor-bearing mouse model; format: in vivo, mouse (Balb/c); settings: Colon26 tumor-bearing mice
Description: The present invention further used the Colon26 tumor-bearing mouse model to test the anti-tumor effect of the example compounds. The Colon26 tumor-bearing mouse model was the mouse rectal cancer cell line Colon26 purchased from Guangzhou Ginio Biological Technology Co., Ltd., and the culture medium used was RPMI1640 containing 10% fetal bovine serum. The mouse strain used for tumor-bearing was Balb/c purchased from Sino-British SIPPR/BK Lab Animal Co., Ltd. At the time of implanting, the Colon26 cells in logarithmic growth phase were collected and mixed to 10 million cells/ml. Each mouse was implanted subcutaneously with 100 μl of one million cells. When the tumor grew to about 100 cubic millimeters, animals were randomly divided into groups with 8 animals per group. Drug administration was started (D0).
Mode of administration: intragastric administration, twice a day.
as §1, with “3% dimethylacetamide” for “3% two methyl acetamide”, “times per” for “times a”, “is: V=½a×b2” for “is: V=½a×b2,”, “and width,” for “and width”, “results: The antitumor” for “results: the anti-tumor”, “in Colon26” for “in PAN02”
Under the same experimental conditions, the dosage was adjusted. The anti-tumor effect of Example 15 and its optical isomers 18-(1) and 18-(2) in Colon26 tumor-bearing mouse model is shown in the following table: […]

[4] = 25 mg/kg intragastric twice a day, D12

For `CS(=O)(CCNc1nonc1/C(=N/O)Nc1ccc(F)c(Br)c1)=NS(=O)(=O)C1CC1` (stereo not shown) [Example 15, (Z)—N-(3-bromo-4-fluorophenyl)-4-((2-(N-(cyclopropylsulfonyl)-S-methylsulfonimidoyl)ethyl)amino)-N′-hydroxy-1,2,5-oxadiazole-3-carboximidamide], the AUC(0-inf) [1] was 5180 ng·h/mL, the Cmax [1] was 1350 ng/mL and the Tmax [1] was 0.5 h. For the same compound, the half-life [1] was 3.54 h, the “Average tumor volume (mm^3 ± SEM) D0” value ([2]; D0 (start of administration)) was 105.0 ± 3.4 mm^3 and the “Average tumor volume (mm^3 ± SEM) D12” value ([2]; D12) was 163.3 ± 11.0 mm^3. For the same compound, the “T/C (%) D12” value ([2]; D12) was 25.2%, the “Tumor inhibition rate (%) D12” value ([2]; D12, 50 mg/kg) was 74.8% and the “Tumor inhibition rate (%) D12” value ([3]; 10 mg/kg, D12) was 71.10%. For the same compound, the “Average tumor volume (mm^3 ± SEM) D0” value ([3]; 25 mg/kg intragastric twice a day, D0 (start of administration)) was 95.5 ± 2.0 mm^3, the “Average tumor volume (mm^3 ± SEM) D12” value [3, 4] was 212.7 ± 28.9 mm^3 and the “T/C (%) D12” value [3, 4] was 5.4%. For the same compound, the “Tumor inhibition rate (%) D12” value ([3]; 25 mg/kg intragastric twice a day, D12, 25 mg/kg) was 94.6%.
